Key:
immune responses = conditions: fold greater than cyclosporine A; cited from earlier work
50-58 kDa protein = assay: LH-20 binding assay with purified 50-58 kDa binding protein from JURKAT cytosol; design: species or system human; conditions: for Kd: 50-58 kDa protein from peripheral blood mononuclear leukocytes and JURKAT cytosol
Protocol: E. The reaction mixture, typically a 100 μl aliquot run in duplicate, is poured onto a column of convenient dimension, such as 0.8×7.0 cm of a molecular sieve matrix such as LH-20 Sephadex (Pharmacia Fine Chemicals, Piscataway, N.J.).
The S-100 fraction was further filtered (0.45 μm pore size membrane, Gelman Sciences), the filtrate (2.9 mg protein) passed through a 600×7.5 nun Bio-Sil-125 HPLC exclusion column at a flow rate of 1.0 ml/minute in 10 mM phosphate buffer, pH 6.8; protein elution was monitored at 280 nm. Fractions (1 ml) were collected and analyzed for binding of ^3 H-dihydro FK-506 using the previously described LH-20 assay, Donnelly et al., 1991, above, which is herein incorporated by reference. Specific binding was determined by assaying each fraction without (total binding) and with ([…]) an excess of unlabeled FK-506.
The 58 kDa protein was purified from 1.4×10^10 human T-cells (JURKAT). The S-100 fraction (10 ml) was centrifuged at 2500×g for 1 hour at 4° C. in a 30 kDa Centriprep™ concentrator (Amicon Corp., Danvers, Ma.). The concentrate (1 ml) was diluted with 15 ml of 10 mM phosphate buffer, pH 6.8, and concentrated down to 5 ml. This step removed proteins of less than 30 kDa, i.e., cyclophilin and FKBP, from the S-100 fraction.
[…] FK-506 and CsA drugs was refocused under the same conditions, using only the ampholytes contained in the 2.7 ml fraction (diluted to 55 ml with deionized water). Focusing was complete when a constant voltage of 2200 was reached.
The 20 fractions were assayed for drug binding as above. […] This fraction (3.02 mg in 2.7 ml) was chromatographed in a Bio-Sil-125 HPLC column at a flow rate of 1.0 ml/minute in 10 mM phosphate buffer, pH 6.8. Fractions representing proteins of 50-60 kDa were screened for binding to both FK-506 and CsA.
Binding fractions were probed and chromatographed on a Beckman TSK CM-25W Spherogel column (26×4.6 mm) at a flow rate of 0.5 ml/minute in 10 mM phosphate buffer, pH 6.8. Fractions containing binding activity were probed and used for binding assays.
The binding assay was the LH-20 assay of Example 1.
The LH binding assay was used for generating the competition curve of FIG. 4.

FKBP [1] = conditions: FKBP isolated from yeast, calf thymus and human T cells (JURKAT); cited from earlier work
FKBP [2] = biological target: FKBP (Homo sapiens, UniProt P62942); conditions: cited from earlier work
FKBP (Homo sapiens, UniProt P62942), sequence (P62942 whole entry): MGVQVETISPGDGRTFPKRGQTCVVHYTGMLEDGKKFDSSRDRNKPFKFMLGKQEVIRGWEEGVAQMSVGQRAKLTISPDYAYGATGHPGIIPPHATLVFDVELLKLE

[3] = tested on: experimental immunopathies; conditions: rats; cited from earlier work
[4] = tested on: 17 kDa (presumably cyclophilin) and 50 kDa cyclosporine A binding proteins; assay: Binding of 3H-cyclosporine A to HPLC fractions of JURKAT S-100 cytosol (LH-20 assay); design: species or system human; conditions: rapamycin at 70 nM; either protein (17 kDa, 50 kDa)
From the text: The experimental conditions of Example 1A were repeated, except that ^3 H-cyclosporine A and unlabeled cyclosporine A were substituted for FK-506.

Candida albicans = conditions: especially Candida albicans; cited from earlier work

C=CC[C@@H]1/C=C(\C)C[C@H](C)C[C@H](OC)[C@H]2O[C@@](O)(C(=O)C(=O)N3CCCC[C@H]3C(=O)O[C@H](/C(C)=C/[C@@H]3CC[C@@H](O)[C@H](OC)C3)[C@H](C)[C@@H](O)CC1=O)[C@H](C)C[C@@H]2OC [FK-506]
potency of inhibiting immune responses relative to cyclosporine A (immune responses): 100-500 fold
inhibition of CsA binding (50-58 kDa protein; 50-58 kDa protein): inhibited by FK-506 in a dose-dependent manner
Kd (50-58 kDa protein): 2 nM
Kd (FKBP [1]): 0.4 nM

CO[C@H]1C[C@@H]2CC[C@@H](C)[C@@](O)(O2)C(=O)C(=O)N2CCCC[C@H]2C(=O)O[C@H]([C@H](C)C[C@@H]2CC[C@@H](O)[C@H](OC)C2)CC(=O)[C@H](C)/C=C(\C)[C@@H](O)[C@@H](OC)C(=O)[C@H](C)C[C@H](C)/C=C/C=C/C=C/1C [RAP, Rapamycin]
inhibition of isomerase activity of FKBP (FKBP [2]): potent inhibitor
Kd (50-58 kDa protein): 0.1 nM
effect on binding of 3H-CsA (50-58 kDa protein; RAP at 300 nM, purified 58 kDa protein): unaffected
IC50 (50-58 kDa protein; inhibition of specific binding of 3H-dihydro FK-506 to purified 58 kDa protein, read-out: B50 value): 0.1 nM
inhibition of specific binding of 3H-dihydro FK-506 (50-58 kDa protein; purified 58 kDa protein, RAP 0.005-500 nM): inhibited in a dose-dependent manner
development of experimental immunopathies and formation of IgE-like antibody [3]: totally prevented
effect on binding of cyclosporine A [4]: did not affect
activity against Candida species (Candida albicans): highly active

From patent US5322772A (Children's Research Institute, priority 1991, dated 1994)
